Measured values as given in paper PMC12670400, “LEKTI-Grafted Sunflower Trypsin Inhibitor: A Potential Therapeutic for Skin Diseases” (Journal of Medicinal Chemistry, 2025).
“Also recorded” adds a separate entry of the source. Bridge positions count the residues as written; N and C are the ends. Peptide text beside a SMILES is read from it.

Assays:
[1] = test system: endogenous KLK5 of NS keratinocytes; assay: KLK5 protease activity assay for culture medium of NS keratinocytes; format: biochemical, human; conditions: for KLK5 activity in NS keratinocytes medium after treatment: one hour, n = 3, untreated 51.9 ± 1.6 nmol/g
Experimental: To evaluate the inhibition of lead 7 on endogenous KLK5 activity, media collected from cultured NS keratinocytes and healthy donor keratinocytes were incubated with lead 7 at the final concentration of 100 nM, or 1 μM, or 10 μM for one hour. Media were then concentrated, and KLK5 activity was measured. […] There were significant differences in KLK5 activity before and after treatment (p < 0.05, n = 3). […] This may be because lead 7 exerts inhibitory effects only when KLK5 activity exceeds a certain threshold, which is not reached in keratinocytes from healthy donors. It was noted that the activity of KLK5 in NS was not reduced to the levels observed in normal keratinocytes. Two reasons might be behind this: (i) a higher lead 7 dose may be required, and (ii) the VPR-AMC substrate can be cleaved by a wider range of serine proteases. The remaining noninhibitory activity could be attributed to the presence of other trypsin-like serine proteases secreted in the cultured medium, which can hydrolyze the VPR-AMC substrate but are not inhibited by lead 7. […]
KLK5 protease activity assay for culture medium
Keratinocytes were seeded in 6 well plate with the density of 0.2 × 10⁶ cells per well and cultured in RM+ medium until they reached confluency. The culture media were changed to FBS free-RM+ media, and cells were continuously cultured. 48 hours after the medium changing, the culture media were harvested from the cell culture plates and centrifuged to remove dead cells. A volume of 180 µL of the supernatants was transferred to 1.5 mL Eppendorf tubes, followed by the addition of 20 µL of analogues in 1x PBS at different concentrations. The samples in which 20 µL of 1x PBS instead of the lead 7 were added were as untreated controls. These mixtures were incubated for one hours at 37 degrees Celsius and then processed for precipitation to concentrate the samples using ProteoExtract® Protein Precipitation Kit (Millipore, cat no. 539180). The precipitates were resuspended in 20 µL of 1X PBS (pH 8.0) for protease activity assessment using protease activity assay. 10uL of suspension from each sample was added in 96 well black plate. The enzymatic reaction was initiated by adding 100 µL of Boc-VPR-AMC substrate (final concentration 100 µM) to each well and RFU values in samples were measured. Protease activities were expressed as nmol/g by first converting RFU readings to KLK5 equivalent concentration activity using a KLK5 standard curve, followed by normalization to total protein content

[2] = test system: KLK5-mediated PAR2 activation; assay: PAR2-dependent intracellular calcium mobilization assay in N/TERT keratinocytes; format: cell-based; conditions: 2.5 to 40 μM, rKLK5 10 μM, preincubated one hour, n = 3, listed as lead 7
Text: PAR2, a member of the G-protein-coupled receptor family expressed in keratinocytes, is a known downstream target of KLK5. KLK5 activates PAR2 by cleaving its extracellular N-terminal domain. This cleavage exposes a tethered ligand, which binds PAR2 intramolecularly to activate the receptor. , Activated PAR2 causes protein kinase C (PKC) and inositol 1,4,5-trisphosphate (IP3) activation, leading to calcium release from the endoplasmic reticulum, known as intracellular calcium mobilization. […] This delay is attributed to the time required for KLK5 to enzymatically cleave the extracellular N-terminal domain of PAR2, thereby exposing the tethered ligand sequence necessary to initiate receptor activation and downstream calcium signaling. […] This observation confirmed PAR2-dependent calcium mobilization and that rKLK5 could initiate PAR2 activation. The inhibition potential of lead 7 on KLK5 activity was then assessed by using this assay. rKLK5 was preincubated with lead 7 at concentrations of 2.5, 5, 20, or 40 μM for one hour before being applied to cultured keratinocytes, after which PAR2-dependent calcium mobilization was measured.
For Ki calculation, Km values for KLK5 and its substrate Boc-VPR-AMC were previously reported in the literature 8, 9, allowing the conversion from IC50 to Ki using the Cheng Prusoff equation10 Kᵢ = IC₅₀ / (1 + [S]/Kₘ) for single-site competitive binding.
Cell lines and tissue cultures
Keratinocytes isolated from the skin in a patient with genetic skin disease Netherton Syndrome (NS19) and in healthy donors (C42, C46, P8) were used in the study. […]
The immortalized keratinocyte cell line (N/TERT)13, 14 were used for the assay. […] The cells were counted, and 100 µL of the suspension, at a density of 600,000 cells/mL, was seeded into each well of a 96 -well microplate. […]
calcium signalling. […] Fluorescence excitation was set at 485 nm, and emission was recorded at 520 nm using SpectraMax® i3x plate reader. […]

Structure (SMILES): C[C@@H](O)[C@@H]1NC(=O)[C@@H]2CSSC[C@H](NC(=O)[C@H](CCC(=O)O)NC(=O)[C@@H]3CCCN3C(=O)[C@@H]3CCCN3C(=O)[C@H](CC(N)=O)NC(=O)[C@H](CO)NC(=O)[C@H](CCCNC(=N)N)NC1=O)C(=O)N[C@@H](Cc1c[nH]c3ccccc13)C(=O)N1CCC[C@H]1C(=O)N[C@@H](CC(N)=O)C(=O)NCC(=O)N[C@@H](Cc1ccccc1)C(=O)N2 [compound 7] (cyclo(GFCTRSNPPECWPN); disulfide 3-11)
- reduction in KLK5 activity, NS keratinocytes ([1]; 100 nM): 14.6%
- KLK5 activity in NS keratinocytes medium after treatment ([1]; 100 nM): 44.3 ± 2.7 nmol/g
- reduction in KLK5 activity, NS keratinocytes ([1]; 1 μM): 35.5%
- KLK5 activity in NS keratinocytes medium after treatment ([1]; 1 μM): 33.5 ± 2.6 nmol/g
- reduction in KLK5 activity, NS keratinocytes ([1]; 10 μM): 41.2%
- KLK5 activity in NS keratinocytes medium after treatment ([1]; 10 μM): 30.5 ± 1.7 nmol/g
- PAR2-dependent calcium mobilization after rKLK5 preincubated with inhibitor [2]: dose-dependent reduction; also recorded: progressive reduction in calcium release
